Earlier results on 2 compounds are cited in patent US9259392B2, “Cochleate compositions directed against expression of proteins” (Rutgers, The State University of New Jersey, priority 2003, dated 2016).

Data set [1] relates to pathogenic fungi. The conditions noted are these: cited from earlier work.
The target in data set [2] is Aspergillus fumigatus H^+-ATPase. The conditions noted are these: cited from earlier work.

On to `CCN1CCC(O)(C=Cc2ccc(Cl)cc2)C(C(=O)C=Cc2ccc(Cl)cc2)C1.Cl` (centres unmarked) [NC1175, 3-[3-(4-chlorophenyl)-2-propenoyl]-4-[2-(4-chlorophenyl)vinylene]-1-ethyl-4-piperidinol hydrochloride], for which the antifungal activity entry in data set [1] is recorded as “antifungal activity against a wide spectrum of pathogenic fungi”. Usually IC50 stands for the concentration needed to halve the response being measured. Regarding `[O]=[V]([OH])([OH])[OH]` [orthovanadate], the IC50 in data set [2] is ~0.8 µM.
